Data on four compounds can be found in patent publication US20240043927A1, “METHOD FOR IDENTIFYING SUBSTANCE CAPABLE OF AFFECTING AGING” (ZHEJIANG BAISHOUKANGDI CO., LTD., priority 2019, published 2024).

Test [1] deals with Zip11. The experiment in a line: Zip11 mRNA expression in human cells treated with vitamins. It is filed as cell-based. The following applies: Human HEK293 and HT1080 cells, treated 24 hours; vitamin B3 10, 50, 100 μM; vitamin B12 1, 10, 50 μM; vitamin C 10, 100, 500 μM. The procedure:
Human HEK293 and HT1080 cells were treated for 24 hours respectively at different concentrations of vitamin B3 (10 μM, 50 μM, 100 μM), vitamin B12 (1 μM, 10 μM, 50 μM) and vitamin C (10 μM, 100 μM, 500 μM). The relative expression quantity of Zip11 mRNA was detected.

The subject of test [2] is ZIP11. Briefly: ZIP11 expression in liver of wild-type mice injected with concanavalin A (RT-PCR). It is filed as in vivo, mouse. The conditions noted are these: wild-type C57BL/6 mice, 10 mg/kg through the tail vein, after 18 hours. The procedure: The wild-type C57BL/6 mice were divided into two groups. An experimental group was injected with 10 mg/kg concanavalin (ConA) through the tail vein.

Consider `O=C(O)c1cccnc1` [vitamin B3], for which the “relative expression quantity of Zip11 mRNA” value (shortened to “relative expression quantity”) in the test with Zip11 [1] is listed as “increase the expression level of Zip11”.

As to `O=C1O[C@H]([C@@H](O)CO)C(O)=C1O` [vitamin C], in the test on Zip11 [1], the “relative expression quantity” value is “increase the expression level of Zip11”.

In the case of Concanavalin A [ConA], the “expression level of ZIP11 in liver tissue (RT-PCR, β-actin as reference)” value in the test with ZIP11 [2] is given as “decrease the level of ZIP11”.

As to vitamin B12, the “relative expression quantity” value in the test with Zip11 [1] is listed as “increase the expression level of Zip11”.
